What was measured:
Assay type in all cases: cell-based
UO-31 = experiment: NCI-60 cell line panel: UO-31; parameters: TGI: unit not given here; conditions: Renal Cancer; for IC50: Homo sapiens; for TGI: total growth inhibition
Method: (§1) It was carried out at the NCI, Bethesda, MD, USA, utilizing their standard protocol.

LOX IMVI = experiment: NCI-60 cell line panel: LOX IMVI; conditions: Melanoma; for IC50: Homo sapiens; for TGI: total growth inhibition
Method: as §1

NCI-H522 = experiment: NCI-60 cell line panel: NCI-H522; parameters: TGI: unit not given here; conditions: Non-Small Cell Lung Cancer; for IC50: Homo sapiens; for TGI: total growth inhibition
Method: as §1

NCI-H460 = experiment: NCI-60 cell line panel: NCI-H460; conditions: Non-Small Cell Lung Cancer; for IC50: Homo sapiens; for TGI: total growth inhibition
Method: as §1

MOLT-4 = experiment: NCI-60 cell line panel: MOLT-4; parameters: TGI: unit not given here; conditions: Leukemia; for IC50: Homo sapiens; for TGI: total growth inhibition
Method: as §1

RPMI-8226 = experiment: NCI-60 cell line panel: RPMI-8226; conditions: Leukemia; for IC50: Homo sapiens; for TGI: total growth inhibition
Method: as §1

SK-OV-3 = experiment: NCI-60 cell line panel: SK-OV-3; conditions: Ovarian Cancer; for IC50: Homo sapiens; for TGI: total growth inhibition
Method: as §1

HOP-62 = experiment: NCI-60 cell line panel: HOP-62; conditions: Non-Small Cell Lung Cancer; for IC50: Homo sapiens; for TGI: total growth inhibition
Method: as §1

HepG2 = experiment: MTT assay, HepG2 HCC cell line; conditions: Homo sapiens, 48 h, mean of triplicate assays ± SEM
Method: (§2) Two HCC cell lines (Hep3B and HepG2) were used for screening the antiproliferative activity of the synthesized compounds. The cell lines were obtained from the European Collection of Cell Cultures (ECACC, UK) and maintained in Dulbecco's Modified Eagle Medium (DMEM: Sigma-Aldrich) supplemented with 10% fetal bovine serum (FBS) and 1% penicillin/streptomycin and incubated at 37° C. in a 5% CO2 air atmosphere. In addition, WI-38 normal cell line was used to investigate the safety of these compounds.
MTT assay was conducted to calculate the IC50 of the compounds following the reported procedure . Briefly, the cells were seeded in 96-well tissue culture plates with a density of 5×10^4 cells/well and incubated overnight at 37° C. in a 5% CO2 air atmosphere. […] DMSO was used as a negative control. After 48 h, the media were aspirated, and replaced with media containing 0.5 mg/mL of MTT tetrazolium dye (Sigma-Aldrich) for 2 h at 37° C. Finally, the media were removed and 200 μL of DMSO was added to solubilize the formazan crystals. Absorbance was then measured at 570 nm using Varioskan Flash multimode plate reader (Thermo Scientific, Massachusetts, USA).

MDA-MB-435 = experiment: NCI-60 cell line panel: MDA-MB-435; parameters: TGI: unit not given here; conditions: Melanoma; for IC50: Homo sapiens; for TGI: total growth inhibition
Method: as §1

K-562 = experiment: NCI-60 cell line panel: K-562; parameters: TGI: unit not given here; conditions: for IC50: Homo sapiens, K562, Leukemia; for TGI: Leukemia, total growth inhibition
Method: as §1

HCT-116 = experiment: NCI-60 cell line panel: HCT-116; conditions: Colon Cancer; for TGI: total growth inhibition; for IC50: Homo sapiens
Method: as §1

TK-10 = experiment: NCI-60 cell line panel: TK-10; conditions: Renal Cancer; for IC50: Homo sapiens; for TGI: total growth inhibition
Method: as §1

M14 = experiment: NCI-60 cell line panel: M14; conditions: Melanoma; for IC50: Homo sapiens; for TGI: total growth inhibition
Method: as §1

HOP-92 = experiment: NCI-60 cell line panel: HOP-92; parameters: TGI: unit not given here; conditions: Non-Small Cell Lung Cancer; for IC50: Homo sapiens; for TGI: total growth inhibition
Method: as §1

T-47D = experiment: NCI-60 cell line panel: T-47D; conditions: Breast Cancer; for TGI: total growth inhibition; for IC50: Homo sapiens, T47D
Method: as §1

[1] = test system: hepatocellular carcinoma cell lines; experiment: Screening against HCC cell lines
Method: The target compounds were tested against hepatocellular carcinoma cell lines. Compounds 1j. 13a. 13b. 13c. […] The mean inhibition percentage values are illustrated in Table 9.
as §2
MTT assay was conducted to calculate the IC50 of the compounds following the reported procedure . Briefly, the cells were seeded in 96-well tissue culture plates with a density of 5×10^4 cells/well and incubated overnight at 37° C. in a 5% CO2 air atmosphere. After that, cells were treated with the newly synthesized compounds or sorafenib as a positive control. DMSO was used as a negative control. After 48 h, the media were aspirated, and replaced with media containing 0.5 mg/mL of MTT tetrazolium dye (Sigma-Aldrich) for 2 h at 37° C. Finally, the media were removed and 200 μL of DMSO was added to solubilize the formazan crystals. Absorbance was then measured at 570 nm using Varioskan Flash multimode plate reader (Thermo Scientific, Massachusetts, USA).

PC-3 = experiment: NCI-60 cell line panel: PC-3; conditions: Prostate Cancer; for IC50: Homo sapiens; for TGI: total growth inhibition
Method: as §1

OVCAR-4 = experiment: NCI-60 cell line panel: OVCAR-4; conditions: Ovarian Cancer; for IC50: Homo sapiens
Method: as §1

MDA-MB-468 = experiment: NCI-60 cell line panel: MDA-MB-468; conditions: Breast Cancer; for TGI: total growth inhibition; for IC50: Homo sapiens
Method: as §1

DU-145 = experiment: NCI-60 cell line panel: DU-145; conditions: Prostate Cancer; for IC50: Homo sapiens; for TGI: total growth inhibition
Method: as §1

CAKI-1 = experiment: NCI-60 cell line panel: CAKI-1; parameters: TGI: unit not given here; conditions: Renal Cancer; for IC50: Homo sapiens; for TGI: total growth inhibition
Method: as §1

SF-268 = experiment: NCI-60 cell line panel: SF-268; conditions: CNS Cancer; for TGI: total growth inhibition; for IC50: Homo sapiens
Method: as §1

NCI-H322M = experiment: NCI-60 cell line panel: NCI-H322M; conditions: Non-Small Cell Lung Cancer; for IC50: Homo sapiens; for TGI: total growth inhibition
Method: as §1

SF-295 = experiment: NCI-60 cell line panel: SF-295; conditions: CNS Cancer; for TGI: total growth inhibition, unit assumed; for IC50: Homo sapiens
Method: as §1

SW-620 = experiment: NCI-60 cell line panel: SW-620; conditions: Colon Cancer; for TGI: total growth inhibition; for IC50: Homo sapiens
Method: as §1

SF-539 = experiment: NCI-60 cell line panel: SF-539; conditions: CNS Cancer; for TGI: total growth inhibition; for IC50: Homo sapiens
Method: as §1

CCN1CCN(c2ccc(NC(=O)Nc3ccc(-c4cc(C(=O)NC(C)C)c5ncccc5n4)cc3)cc2C(F)(F)F)CC1 [Compound 13f, 2-(4-(3-(4-(4-Ethylpiperazin-1-yl)-3-(trifluoromethyl)phenyl)ureido)phenyl)-N-isopropyl-1,5-naphthyridine-4-carboxamide]
IC50 (UO-31): 2180 nM
TGI (UO-31): 6.81
IC50 (LOX IMVI): 560 nM
TGI (LOX IMVI): 1050 nM
IC50 (NCI-H522): 3520 nM
TGI (NCI-H522): 8.43
IC50 (NCI-H460): 620 nM
TGI (NCI-H460): 1180 nM
IC50 (MOLT-4): 1110 nM
TGI (MOLT-4): 30.60
IC50 (RPMI-8226): 1040 nM
TGI (RPMI-8226): > 34500 nM
IC50 (SK-OV-3): 5330 nM
TGI (SK-OV-3): 1080 nM
IC50 (HOP-62): 3830 nM
TGI (HOP-62): 8890 nM
IC50 (HepG2): 460 ± 60 nM
IC50 (MDA-MB-435): 650 nM
TGI (MDA-MB-435): 1.31
IC50 (K-562): 1000 nM
TGI (K-562): >34.5
TGI (HCT-116): 1300 nM
IC50 (HCT-116): 640 nM
IC50 (TK-10): 1350 nM
TGI (TK-10): 4870 nM
IC50 (M14): 720 nM
TGI (M14): 1900 nM
IC50 (HOP-92): 3140 nM
TGI (HOP-92): 8.29
TGI (T-47D): 8740 nM
IC50 (T-47D): 1930 nM
inhibition activity against hepatocellular carcinoma cell lines compared with sorafenib [1]: higher inhibition activity than sorafenib
IC50 (PC-3): 760 nM
TGI (PC-3): 2100 nM
IC50 (OVCAR-4): 880 nM
TGI (OVCAR-4; total growth inhibition, in µM (unit assumed)): 2.45
TGI (MDA-MB-468): 1850 nM
IC50 (MDA-MB-468): 770 nM
IC50 (DU-145): 750 nM
TGI (DU-145): 1580 nM
IC50 (CAKI-1): 800 nM
TGI (CAKI-1): 2.08
TGI (SF-268): 10900 nM
IC50 (SF-268): 3560 nM
IC50 (NCI-H322M): 1850 nM
TGI (NCI-H322M): 7240 nM
TGI (SF-295): 1140 nM
IC50 (SF-295): 580 nM
TGI (SW-620): 1260 nM
IC50 (SW-620): 640 nM
TGI (SF-539): 1020 nM
IC50 (SF-539): 530 nM

CCN1CCN(c2ccc(NC(=O)Nc3ccc(-c4cc(C(=O)NC)c5ncccc5n4)cc3)cc2C(F)(F)F)CC1 [Compound 13c, 2-(4-(3-(4-(4-Ethylpiperazin-1-yl)-3-(trifluoromethyl)phenyl)ureido)phenyl)-N-methyl-1,5-naphthyridine-4-carboxamide]
IC50 (UO-31): 2710 nM
TGI (UO-31): 5.14
IC50 (LOX IMVI): 670 nM
TGI (LOX IMVI): 2660 nM
IC50 (NCI-H522): 3230 nM
TGI (NCI-H522): 6.40
IC50 (NCI-H460): 660 nM
TGI (NCI-H460): 2930 nM
IC50 (MOLT-4): 700 nM
TGI (MOLT-4): >18.0
IC50 (RPMI-8226): 3050 nM
TGI (RPMI-8226): > 18000 nM
IC50 (SK-OV-3): 3480 nM
TGI (SK-OV-3): 7500 nM
IC50 (HOP-62): 2790 nM
TGI (HOP-62): 5410 nM
IC50 (MDA-MB-435): 270 nM
TGI (MDA-MB-435): 0.56
IC50 (K-562): 660 nM
TGI (K-562): >18.0
TGI (HCT-116): 4830 nM
IC50 (HCT-116): 1120 nM
IC50 (TK-10): 3860 nM
TGI (TK-10): 6630 nM
IC50 (M14): 400 nM
TGI (M14): 1050 nM
IC50 (HOP-92): 2450 nM
TGI (HOP-92): 5.67
TGI (T-47D): > 18000 nM
IC50 (T-47D): 3720 nM
inhibition activity against hepatocellular carcinoma cell lines compared with sorafenib [1]: higher inhibition activity than sorafenib
IC50 (PC-3): 2880 nM
TGI (PC-3): 6030 nM
IC50 (OVCAR-4): 2630 nM
TGI (MDA-MB-468): 5030 nM
IC50 (MDA-MB-468): 2480 nM
IC50 (DU-145): 2230 nM
TGI (DU-145): 4900 nM
IC50 (CAKI-1): 3010 nM
TGI (CAKI-1): 5.60
TGI (SF-268): 7000 nM
IC50 (SF-268): 3090 nM
IC50 (NCI-H322M): 2800 nM
TGI (NCI-H322M): 5200 nM
TGI (SF-295): 4470 nM
IC50 (SF-295): 2060 nM
TGI (SW-620): 620 nM
IC50 (SW-620): 310 nM
TGI (SF-539): 4570 nM
IC50 (SF-539): 2300 nM
